Assay results taken from US4740504A, “Antihyperlipidemic amine boranes” (United States Borax & Chemical Corp., priority 1987, dated 1988).
Like-named read-outs stand apart in the source and are kept apart here.

Columns and labels:
[1] = tested on: sn-glycerol-3 phosphate acyl transferase; test: Enzymatic studies in vitro: sn-glycerol-3 phosphate acyl transferase; format: biochemical
[2] = biological target: T1, fatty acid synthetase (Mus musculus, UniProt P19096); test: Enzymatic studies in vitro: fatty acid synthetase; format: biochemical
T1 construct: from tissue
T1 sequence (P19096 whole entry): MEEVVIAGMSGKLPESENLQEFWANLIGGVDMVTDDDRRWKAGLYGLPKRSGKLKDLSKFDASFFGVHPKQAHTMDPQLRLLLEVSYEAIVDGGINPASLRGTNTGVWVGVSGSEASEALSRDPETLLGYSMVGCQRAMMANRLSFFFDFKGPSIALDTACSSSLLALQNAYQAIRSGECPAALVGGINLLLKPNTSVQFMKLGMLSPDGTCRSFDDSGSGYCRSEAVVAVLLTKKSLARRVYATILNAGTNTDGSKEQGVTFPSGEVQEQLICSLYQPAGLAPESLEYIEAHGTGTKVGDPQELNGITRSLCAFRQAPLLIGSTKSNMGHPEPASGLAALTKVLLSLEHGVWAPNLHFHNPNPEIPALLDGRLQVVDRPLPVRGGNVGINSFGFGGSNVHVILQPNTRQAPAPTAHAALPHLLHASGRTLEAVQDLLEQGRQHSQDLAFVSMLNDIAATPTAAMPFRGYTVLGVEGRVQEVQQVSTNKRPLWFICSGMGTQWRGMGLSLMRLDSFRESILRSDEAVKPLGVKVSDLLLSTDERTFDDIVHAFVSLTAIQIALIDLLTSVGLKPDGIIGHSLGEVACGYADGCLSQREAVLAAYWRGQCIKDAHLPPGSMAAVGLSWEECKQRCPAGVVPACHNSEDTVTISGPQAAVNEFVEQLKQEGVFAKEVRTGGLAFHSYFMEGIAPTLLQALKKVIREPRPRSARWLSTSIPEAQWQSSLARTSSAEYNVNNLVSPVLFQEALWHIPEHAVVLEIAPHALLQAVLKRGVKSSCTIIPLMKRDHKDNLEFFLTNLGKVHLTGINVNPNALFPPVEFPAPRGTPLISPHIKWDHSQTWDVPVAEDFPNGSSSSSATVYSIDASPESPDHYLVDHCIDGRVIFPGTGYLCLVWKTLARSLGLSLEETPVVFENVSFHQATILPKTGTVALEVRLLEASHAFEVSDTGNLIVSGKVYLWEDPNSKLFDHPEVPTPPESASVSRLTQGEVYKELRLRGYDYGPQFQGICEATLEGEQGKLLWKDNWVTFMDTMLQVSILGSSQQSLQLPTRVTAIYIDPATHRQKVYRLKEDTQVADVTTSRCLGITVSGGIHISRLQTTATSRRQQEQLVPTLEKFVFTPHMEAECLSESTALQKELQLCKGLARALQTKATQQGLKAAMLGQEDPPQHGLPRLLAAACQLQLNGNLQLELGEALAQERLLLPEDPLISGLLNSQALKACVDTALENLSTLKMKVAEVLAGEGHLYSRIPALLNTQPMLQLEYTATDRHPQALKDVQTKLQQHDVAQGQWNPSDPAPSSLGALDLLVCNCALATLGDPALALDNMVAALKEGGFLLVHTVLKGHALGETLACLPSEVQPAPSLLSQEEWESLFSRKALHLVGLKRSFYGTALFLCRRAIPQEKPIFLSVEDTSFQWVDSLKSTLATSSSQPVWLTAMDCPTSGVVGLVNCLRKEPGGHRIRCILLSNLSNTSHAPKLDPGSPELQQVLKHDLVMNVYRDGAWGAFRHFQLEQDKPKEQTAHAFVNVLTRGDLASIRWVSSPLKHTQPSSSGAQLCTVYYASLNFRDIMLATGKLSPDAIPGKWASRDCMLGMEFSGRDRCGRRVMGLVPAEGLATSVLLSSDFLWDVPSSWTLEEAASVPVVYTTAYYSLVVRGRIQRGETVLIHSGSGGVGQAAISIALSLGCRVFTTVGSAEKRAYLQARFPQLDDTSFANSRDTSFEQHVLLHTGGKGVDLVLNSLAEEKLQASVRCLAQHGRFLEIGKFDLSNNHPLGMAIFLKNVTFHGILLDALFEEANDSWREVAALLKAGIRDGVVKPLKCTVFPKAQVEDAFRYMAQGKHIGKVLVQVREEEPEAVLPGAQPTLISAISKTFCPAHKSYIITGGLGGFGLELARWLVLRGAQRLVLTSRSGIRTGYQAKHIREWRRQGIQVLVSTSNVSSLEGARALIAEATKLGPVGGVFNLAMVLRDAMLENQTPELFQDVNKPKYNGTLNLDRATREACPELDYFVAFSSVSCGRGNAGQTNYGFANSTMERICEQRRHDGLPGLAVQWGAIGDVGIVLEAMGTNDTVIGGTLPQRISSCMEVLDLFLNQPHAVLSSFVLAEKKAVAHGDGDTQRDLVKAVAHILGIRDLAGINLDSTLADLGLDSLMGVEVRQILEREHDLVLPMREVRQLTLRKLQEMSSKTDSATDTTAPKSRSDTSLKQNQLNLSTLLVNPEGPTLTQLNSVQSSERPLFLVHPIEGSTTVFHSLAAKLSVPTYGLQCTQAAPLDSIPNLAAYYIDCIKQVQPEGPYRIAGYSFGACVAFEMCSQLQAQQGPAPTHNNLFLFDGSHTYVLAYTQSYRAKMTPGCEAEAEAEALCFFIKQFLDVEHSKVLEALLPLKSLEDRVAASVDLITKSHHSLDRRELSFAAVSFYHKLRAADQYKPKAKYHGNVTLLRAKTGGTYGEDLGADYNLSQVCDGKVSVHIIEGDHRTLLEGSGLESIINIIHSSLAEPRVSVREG

[3] = biological target: T2, ATP dependent citrate lyase (Mus musculus, UniProt Q91V92); test: Enzymatic studies in vitro: ATP dependent citrate lyase; format: biochemical; conditions: at all concentrations tested
T2 construct: from tissue
T2 sequence (Q91V92 1-1091): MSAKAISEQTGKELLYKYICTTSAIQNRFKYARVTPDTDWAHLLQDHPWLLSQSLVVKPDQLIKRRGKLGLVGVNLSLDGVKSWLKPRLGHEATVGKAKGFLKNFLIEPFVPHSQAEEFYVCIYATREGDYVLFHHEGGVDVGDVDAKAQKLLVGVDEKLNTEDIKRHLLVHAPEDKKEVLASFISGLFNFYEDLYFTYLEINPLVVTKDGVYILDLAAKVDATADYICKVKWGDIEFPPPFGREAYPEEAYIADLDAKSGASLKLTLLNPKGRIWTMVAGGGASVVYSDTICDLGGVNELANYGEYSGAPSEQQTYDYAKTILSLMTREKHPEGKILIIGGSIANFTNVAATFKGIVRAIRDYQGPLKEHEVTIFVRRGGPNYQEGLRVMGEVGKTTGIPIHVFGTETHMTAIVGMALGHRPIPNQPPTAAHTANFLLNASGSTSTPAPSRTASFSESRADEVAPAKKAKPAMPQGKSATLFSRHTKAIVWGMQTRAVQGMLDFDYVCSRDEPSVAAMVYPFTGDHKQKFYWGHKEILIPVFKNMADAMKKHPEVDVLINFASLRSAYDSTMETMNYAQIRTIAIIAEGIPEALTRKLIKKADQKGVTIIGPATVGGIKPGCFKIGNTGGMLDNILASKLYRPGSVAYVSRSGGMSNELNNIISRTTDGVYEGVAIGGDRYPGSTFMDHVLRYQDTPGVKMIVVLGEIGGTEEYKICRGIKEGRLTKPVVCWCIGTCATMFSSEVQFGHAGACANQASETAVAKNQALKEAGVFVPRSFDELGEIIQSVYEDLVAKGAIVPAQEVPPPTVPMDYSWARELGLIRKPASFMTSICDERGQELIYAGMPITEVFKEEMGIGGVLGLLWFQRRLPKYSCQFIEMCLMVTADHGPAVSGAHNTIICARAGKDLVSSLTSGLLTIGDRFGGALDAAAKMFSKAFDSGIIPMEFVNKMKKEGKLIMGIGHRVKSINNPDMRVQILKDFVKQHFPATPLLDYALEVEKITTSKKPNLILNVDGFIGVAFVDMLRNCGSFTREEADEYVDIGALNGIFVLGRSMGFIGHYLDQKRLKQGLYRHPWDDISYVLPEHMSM

[4] = biological target: T3, acyl CoA cholesterol acyl transferase (Mus musculus, UniProt O88908); test: Enzyme activity after in vivo dosing: acyl CoA cholesterol acyl transferase; conditions: 8 mg/kg/day
T3 construct: from tissue
T3 sequence (O88908 1-525): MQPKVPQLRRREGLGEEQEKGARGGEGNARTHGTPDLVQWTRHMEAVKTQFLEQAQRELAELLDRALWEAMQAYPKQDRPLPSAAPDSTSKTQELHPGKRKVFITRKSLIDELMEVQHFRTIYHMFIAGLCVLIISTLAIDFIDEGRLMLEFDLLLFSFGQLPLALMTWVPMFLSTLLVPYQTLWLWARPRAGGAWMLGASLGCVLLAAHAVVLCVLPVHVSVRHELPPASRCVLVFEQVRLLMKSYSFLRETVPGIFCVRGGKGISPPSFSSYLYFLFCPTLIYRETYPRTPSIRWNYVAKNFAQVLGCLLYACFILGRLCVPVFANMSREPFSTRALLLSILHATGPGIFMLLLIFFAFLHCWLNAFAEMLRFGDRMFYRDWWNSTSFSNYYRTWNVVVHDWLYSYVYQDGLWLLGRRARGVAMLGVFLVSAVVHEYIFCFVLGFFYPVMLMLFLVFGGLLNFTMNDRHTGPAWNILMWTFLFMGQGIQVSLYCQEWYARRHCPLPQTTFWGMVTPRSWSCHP

[5] = tested on: male CF1 mice; test: Hypolipidemic activity in CF1 mice, intraperitoneal dosing (serum cholesterol and triglyceride); format: in vivo; conditions: for response vs control in vivo at 20 mg/kg: Mus musculus, ip, Table I, 20 mg./kg./day i.p., male CF1 mice; for Serum Cholesterol Day 9 (X ± SD) / Serum Cholesterol Day 16 (X ± SD) / Serum Triglyceride Day 16 (X ± SD) / Serum Triglyceride Day 9 (X ± SD): Table III, CF1 mice, N = 6
Method: For determining hypolipidemic activity, the compounds were suspended in an aqueous 1% carboxymethylcellulose solution and tested at 5 or 20 mg./kg./day administered intraperitoneally to male CF1 mice (~25 g.). On days 9 and 16 blood was collected by tail vein bleeding and the serum separated by centrifugation for three minutes. Serum cholesterol levels were determined by a modified Liebermann-Burchard reaction. Serum triglyceride levels were also determined at 16 days using a Fisher-Hycel Triglyceride Test Kit.
The test was repeated at a dosage of 8 mg./kg./day.
N-n-Octadecyl-N,N-dimethylamine borane was suspended in an aqueous 1% carboxymethylcellulose solution, homogenized, and administered to CF1 male mice (~25 g.) intraperitoneally for 16 days or Sprague Dawley male rats (~350 g.) orally by an intubation needle for 14 days. On days 9 and 14 or 16, blood was obtained by tail vein bleeding and the serum separated by centrifugation for 3 minutes. The serum cholesterol levels were determined by a modification of the Liebermann-Burchard reaction. Serum was also collected on day 14 or 16 and the triglyceride content was determined by a Fisher-Hycel Triglyceride Test Kit.

[6] = Toxicity (LD50); conditions: in vivo
[7] = tested on: phosphatidate phosphohydrolase; test: Enzymatic studies in vitro: phosphatidate phosphohydrolase; format: biochemical; conditions: 200 μM
[8] = biological target: T3, acyl CoA cholesterol acyl transferase; test: Enzymatic studies in vitro: acyl CoA cholesterol acyl transferase; format: biochemical; conditions: read-out: reduction of acyl CoA cholesterol acyl transferase activity
[9] = CF1 male mice, 8 mg/kg/day I.P.

In the case of `[BH3-][N+](C)(C)CCCCCCCCCCCCCCCCCC` [I, N-n-Octadecyl-N,N-Dimethylamine Borane], the “effect on sn-glycerol-3 phosphate acyl transferase activity” value [1] is reported as “unaffected”, the “effect on fatty acid synthetase activity” value [2] is reported as “unaffected” and the “reduction of ATP dependent citrate lyase activity” value [3] is reported as “more than 50%”. For the same compound, the “lowering of acyl CoA cholesterol acyl transferase activity” value [4] was 52%, the “reduction of serum cholesterol levels” value [5, 9] was 41% and the “reduction of serum triglyceride levels” value [5, 9] was 59%. It also gave a response vs control in vivo at 20 mg/kg ([5]; 216 h, day 9, read-out: Serum Cholesterol Day 9) of 82%, a response vs control in vivo at 20 mg/kg ([5]; 384 h, day 16, read-out: Serum Cholesterol Day 16) of 79% and a response vs control in vivo at 20 mg/kg ([5]; 384 h, day 16, read-out: Serum Triglyceride Day 16) of 77%. For the same compound, the “Serum Cholesterol Day 9 (X ± SD)” value ([5]; 2 mg/kg/day i.p.) was 71 ± 6% of Control, the “Serum Cholesterol Day 16 (X ± SD)” value ([5]; 2 mg/kg/day i.p.) was 61 ± 7% of Control and the “Serum Triglyceride Day 16 (X ± SD)” value ([5]; 2 mg/kg/day i.p.) was 45 ± 4% of Control. For the same compound, the “Serum Cholesterol Day 9 (X ± SD)” value ([5]; 4 mg/kg/day i.p.) was 69 ± 5% of Control, the “Serum Cholesterol Day 16 (X ± SD)” value ([5]; 4 mg/kg/day i.p.) was 59 ± 5% of Control and the “Serum Triglyceride Day 16 (X ± SD)” value ([5]; 4 mg/kg/day i.p.) was 49 ± 5% of Control. The “Serum Cholesterol Day 9 (X ± SD)” value ([5]; 8 mg/kg/day i.p.) was 79 ± 7% of Control, the “Serum Cholesterol Day 16 (X ± SD)” value ([5]; 8 mg/kg/day i.p.) was 59 ± 4% of Control and the “Serum Triglyceride Day 9 (X ± SD)” value ([5]; 8 mg/kg/day i.p.) was 87 ± 7% of Control. The “Serum Triglyceride Day 16 (X ± SD)” value ([5]; 8 mg/kg/day i.p.) was 41 ± 3% of Control, the “Serum Cholesterol Day 9 (X ± SD)” value ([5]; 12 mg/kg/day i.p.) was 62 ± 6% of Control and the “Serum Cholesterol Day 16 (X ± SD)” value ([5]; 12 mg/kg/day i.p.) was 61 ± 5% of Control. For the same compound, the “Serum Triglyceride Day 9 (X ± SD)” value ([5]; 12 mg/kg/day i.p.) was 58 ± 6% of Control, the “Serum Triglyceride Day 16 (X ± SD)” value ([5]; 12 mg/kg/day i.p.) was 56 ± 7% of Control and the “Serum Cholesterol Day 9 (X ± SD)” value ([5]; 16 mg/kg/day i.p.) was 60 ± 5% of Control. For the same compound, the “Serum Cholesterol Day 16 (X ± SD)” value ([5]; 16 mg/kg/day i.p.) was 61 ± 6% of Control, the “Serum Triglyceride Day 9 (X ± SD)” value ([5]; 16 mg/kg/day i.p.) was 73 ± 8% of Control and the “Serum Triglyceride Day 16 (X ± SD)” value ([5]; 16 mg/kg/day i.p.) was 63 ± 8% of Control. For the same compound, the “Serum Cholesterol Day 9 (X ± SD)” value ([5]; 20 mg/kg/day i.p.) was 82 ± 7% of Control, the “Serum Cholesterol Day 16 (X ± SD)” value ([5]; 20 mg/kg/day i.p.) was 79 ± 7% of Control and the “Serum Triglyceride Day 16 (X ± SD)” value ([5]; 20 mg/kg/day i.p.) was 77 ± 7% of Control. For the same compound, the “Serum Cholesterol Day 9 (X ± SD)” value ([5]; 40 mg/kg/day i.p.) was 83 ± 6% of Control, the “Serum Cholesterol Day 16 (X ± SD)” value ([5]; 40 mg/kg/day i.p.) was 79 ± 8% of Control and the “Serum Triglyceride Day 16 (X ± SD)” value ([5]; 40 mg/kg/day i.p.) was 93 ± 6% of Control. The “Serum Cholesterol Day 9 (X ± SD)” value ([5]; 60 mg/kg/day i.p.) was 81 ± 6% of Control, the “Serum Cholesterol Day 16 (X ± SD)” value ([5]; 60 mg/kg/day i.p.) was 82 ± 6% of Control and the “Serum Triglyceride Day 16 (X ± SD)” value ([5]; 60 mg/kg/day i.p.) was 113 ± 4% of Control. For the same compound, the optimum dosage ([5]; in mice) was “about 8 mg./kg./day”, the LD50 [6] was greater than 500 mg/kg and the “reduction in phosphatidate phosphohydrolase activity” value [7] was 67%. The inhibition at 100 µM ([8]; 100 μM) was 41% and the inhibition at 200 µM ([8]; 200 μM) was 55%.
